Data from article PMC5485613, “A novel TRPM8 agonist relieves dry eye discomfort” (BMC Ophthalmology, 2017).

What was measured:
rats = assay: Shaking activity (wet dog shakes) after intravenous, perioral and topical administration; format: in vivo, rat
Procedure: Male rats weighing 220–260 g were anesthetized with sodium pentobarbital, 55 mg/kg intraperitoneal, and after the loss of the righting reflex, animals were placed on a table and body temperature was recorded. The femoral vein was cannulated with polyethylene-20 tubing connected to a 1 mL syringe. For the intravenous and perioral routes, 0.1 mL of solution was given per 100 g body weight at a dose of 2 mg/kg or 20 mg/kg, respectively. For topical administration, the abdominal skin was shaved and 20 μL of the pure Dapa was applied with a micropipette on a ~ 1 cm diameter circle of skin, enclosed with a ring of cream (Baby cream “NevskayakosmetikaDetskyi” NevskayaKosmetika Inc., Saint-Petersburg 192,029). Animals were observed and shaking frequency counted for 15, 40 min and 1 h after intravenous, perioral, and topical applications, respectively. There were n = 3 to 6 rats per test substance. For the intravenous route, two trials were conducted in the same animal with a 10 to 15 min interval between doses. The shaking frequency shown in the graphs is for the second trial. Shaking behavior are rapid alternating contractions of the supination and pronation muscles about the spinal axis, and can be readily observed in the readily observed in the unanesthetized or anesthetized state and counted (Additional file 2: Movie S1). The pattern of response after intravenous, perioral, and topical delivery provides information on the ability of the molecule to cross membrane barriers. Experiments on rats were ended by euthanasia with intraperitoneal injection of sodium pentobarbital 150 mg/kg.
Supplementary file 12886_2017_495_MOESM2_ESM.mp4: Additional file 2: Movie S1. Shaking response to a 1-diisopropylphosphorylnonane. Video recording 20 to 40 min period after oral dosing with C3 at 50 mg/kg. C3 was dissolved in 5% ethanol-95% R-1,2-propanediol. The total observation period was 120 min. […] (MP4 3699 kb)

[1] = system: patients with dry eye disease; assay: Four times daily application for 2 weeks in patients with dry eye disease (Expt 2); format: in vivo, human
Procedure: Initially, a total of 60 additional patients fulfilling the inclusion criteria were assessed for eligibility, and 54 subjects who decided to participate were randomized into two groups as described above (Additional file 1: Figure S4). Vehicle or C3 were prepared as 1 mL solutions placed into unit applicators called Swabdose™ made by Unicep Corporation, Sandpoint, ID. These applicators are singly encased in a polypropylene container with a 6.35 mm cotton tip attached to a 74.6 mm polystyrene handle. USP purified water (placebo units) or a C3 sample (2 mg/mL in USP purified water) was prepared onsite under clean conditions and packaged with automated equipment. Each subject was given 14 Swabdoses for the 2-week study period. The subjects were instructed to apply the cotton-tipped applicator to the edges of the closed eyelids once every 6 h per day for 14 days. The applicators were pre-weighed and the subjects were told to use to same applicator for each day and to save the applicator in a plastic bag at the end of the day. The applicators were collected, weighed and compared with the weight before application. TBUT, basal tear secretion, and corneal staining assessed by KEP scores were analyzed before and at 1 and 2 weeks thereafter. For TBUT, basal tear secretion, and KEP only the results from the right eye were scored for data analysis.
Three questionnaires were used at each patient visit to analyze the effects of treatment on ocular discomfort. Firstly, DED symptoms were assessed using a visual analogue scale (VAS) score of 1 to 10. Next, symptoms were assessed using the ocular surface disease index (OSDI) questionnaire, consisting of 12 questions graded on a scale from 0 to 4 (0 = “none of the time” and 4 = “all the time”). An overall score was calculated (0–100) by using the following equation: (25 × (sum of answered question scores/number of questions answered)). Participants were also asked to grade five symptoms associated with the CVS. The symptoms of fatigue, burning, dryness, blurred vision, and dullness of vision was ranked on a scale of 0 to 6 (0 = “no symptom”, 6 = “very severe symptom”) and the average aggregate score for the two test groups are reported.

human TRPA1 = biological target: T1, human TRPA1 (Homo sapiens, UniProt O75762); assay: TRPA1 calcium imaging (Fura-2) in transfected KNRK cells; format: cell-based; conditions: 10 μM
T1 construct: expressed in transfected cells; host or cells: KNRK cells (rat kidney), transiently transfected
Procedure: To further examine the specificity of C3, tests were conducted on TRPV1 channels and TRPA1 channels expressed in Kirsten murine sarcoma virus transformed rat kidney (KNRK) cells. KNRK cells were cultured as a monolayer and maintained in Dulbeccos’s Modified Eagles’s Medium (Life Technologies), supplemented with 10% fetal bovine serum (Life Technologies), 100 units/mL penicillin and 100 μg/mL streptomycin, in an incubator of 5% CO2 at 37 °C. After suspension, the cells were coated on cover slips for 12 h, then transiently transfected with cDNA (pc3.1 DNA) for TRPV1 or TRPA1 with Lipofectamine 2000 (Invitrogen) for 24 h, and loaded with Fura-2 AM™ (Molecular Probes) for 40 min at 37 °C. After washing and recovery, KNRK cells were imaged at 340 and 380 nm excitation to detect free calcium influx. An increase of 50% of the 340/380 ratio was considered as the response threshold which were measured under masked conditions for plasmids. Compounds were applied to the bath and calcium response was acquired by an inverted Nikon fluorescence microscope with a CoolSnap HQ2 CCD camera (Photometrics, Tucson, AZ). Data were quantified offline with the Nikon-NIS program.

[2] = 2 mg/mL four times a day, versus vehicle
[3] = 2 mg/mL four times a day, week 1 or week 2, n = 20

T1 sequence (O75762 whole entry): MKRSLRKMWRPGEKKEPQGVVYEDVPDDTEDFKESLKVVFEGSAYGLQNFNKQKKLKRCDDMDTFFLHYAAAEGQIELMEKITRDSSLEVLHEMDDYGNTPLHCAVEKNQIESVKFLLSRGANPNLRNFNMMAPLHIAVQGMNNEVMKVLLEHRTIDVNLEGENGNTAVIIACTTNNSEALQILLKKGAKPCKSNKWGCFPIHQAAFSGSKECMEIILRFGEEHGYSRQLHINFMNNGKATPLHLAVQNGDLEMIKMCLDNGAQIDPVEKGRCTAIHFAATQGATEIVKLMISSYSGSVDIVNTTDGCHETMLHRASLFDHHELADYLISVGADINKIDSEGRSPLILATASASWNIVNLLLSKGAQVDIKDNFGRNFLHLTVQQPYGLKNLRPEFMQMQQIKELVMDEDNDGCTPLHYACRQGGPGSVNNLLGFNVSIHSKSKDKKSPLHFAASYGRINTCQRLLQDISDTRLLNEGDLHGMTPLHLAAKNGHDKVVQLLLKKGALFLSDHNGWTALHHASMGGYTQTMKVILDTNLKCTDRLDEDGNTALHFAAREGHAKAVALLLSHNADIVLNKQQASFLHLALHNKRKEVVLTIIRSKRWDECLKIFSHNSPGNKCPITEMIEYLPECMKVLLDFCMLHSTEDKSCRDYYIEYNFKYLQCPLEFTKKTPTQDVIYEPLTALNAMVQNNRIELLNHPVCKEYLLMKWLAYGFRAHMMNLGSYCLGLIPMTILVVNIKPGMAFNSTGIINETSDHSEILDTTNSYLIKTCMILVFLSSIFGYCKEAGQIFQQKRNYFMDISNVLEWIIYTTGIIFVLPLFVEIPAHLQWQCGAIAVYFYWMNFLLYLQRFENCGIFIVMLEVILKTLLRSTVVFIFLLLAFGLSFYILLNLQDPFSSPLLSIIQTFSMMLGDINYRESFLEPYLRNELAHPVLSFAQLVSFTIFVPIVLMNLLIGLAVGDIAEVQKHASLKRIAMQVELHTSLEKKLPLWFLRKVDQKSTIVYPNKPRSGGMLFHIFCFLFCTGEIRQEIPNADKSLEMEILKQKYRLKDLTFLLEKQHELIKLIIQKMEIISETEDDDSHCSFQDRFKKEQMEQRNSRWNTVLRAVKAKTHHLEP

Which results are given for `CCCCCCCCCP(=O)(C(C)C)C(C)C` [C3, 1-diisopropylphosphorylnonane]?
Shaking [15 min] (rats; intravenous 2 mg/kg, anesthetized rats): active; body shakes after oral dosing (rats; oral 20 mg/kg, anesthetized and unanesthetized state): no body shakes; total number of shaking in the most active rat (rats; oral 50 mg/kg in 5% ethanol-95% R-1,2-propanediol, observation 120 min): 56 shakes; Shaking [40 min] (rats; perioral 20 mg/kg, pentobarbital-anesthetized rats): not active; CVS type of symptoms ([1]; 2 mg/mL four times a day, 1 and 2 weeks): significantly improved; basal tear secretion ([1]; 2 mg/mL four times a day, 1 and 2 weeks, versus baseline and vehicle): significantly increased; severity of symptoms by VAS score [1, 2]: significantly improved at week 2 but not at week 1; total OSDI score [1, 2]: significantly improved at week 2 but not at week 1; KEP [1, 3]: no significant changes; TBUT [1, 3]: no significant changes; adverse effect (ocular pain, irritation, discomfort) ([1]; 2 weeks study): No significant adverse effect; activation of TRPA1 (calcium response) (human TRPA1): inactive
